From article PMC5775429, “LY2087101 and dFBr share transmembrane binding sites in the (α4)3(β2)2 Nicotinic Acetylcholine Receptor” (Scientific Reports, 2018)

How the values were obtained:
Assay in all cases: Two-electrode voltage-clamp of ACh-induced currents in Xenopus oocytes
Assay type in all cases: cell-based
[1] = target: T1, (α4C254S)3(β2)2 nAChR (Homo sapiens, UniProt P17787+P43681, C254S)
T1 construct: expressed in transfected cells; host or cells: Xenopus laevis oocytes injected with cRNA
Experimental: (§1) For amino acid substitutions within the α4 nAChR subunit, point mutations were introduced into pSP64ployA plasmid with cDNA encoding for human α4 nAChR subunit with mutagenic primer pairs using the Quick Change II Site-Directed Mutagenesis Kit (Agilent Technologies) then confirmed by DNA sequencing (GENEWIZ, LLC, South Plainfield, NJ). cRNA transcripts suitable for oocyte expression were prepared in vitro from linearized plasmids [α3 (BamH1), α4 (AseI), β2 (PvuII), β4 (XhoI)] using mMESSAGE mMACHINE high yield capped RNA transcription kits (Ambion) and purified on NucAway Spin column (Invitrogen). cRNA concentration was determined by spectroscopy (Concentration (ug/ul) = Abs260 * 40), aliquoted and stored at −80 °C until used.
(§2) Ovarian lobules were surgically harvested from oocytes-positive female Xenopus laevis (NASCO, Fort Atkinson, WI) according to an animal use protocol approved by the Texas A&M Health Sciences Center Institutional Animals Care and Use Committee. The Texas A&M Health Sciences Center Research Facility is registered as an animal research facility with the United States Department of Agriculture and is fully accredited by the American Association for Accreditation of Laboratory Animal Care (AAALAC). For oocytes defolliculation, ovarian lobes were treated with 3 mg/ml collagenase type 2 (Worthington Biomedical, Lakewood, NJ) in Ca + 2-free buffer (85 mM NaCl, 2.5 mM KCl, 1 mM MgCl2, 5 mM HEPES, pH 7.6). Collagenase treatment was allowed to proceed for 3 hours at room temperature with gentle shaking then oocytes were washed several times with buffer to remove collagenase then with ND96-gentamicine buffer. Healthy Stage V and VI oocytes were visually selected and maintained at 18 °C in modified ND96-gentamicine buffer (96 mM NaCl, 2 mM KCl, 1.8 mM CaCl2, 1 mM MgCl2, 5 mM HEPES, 50 µg/ml gentamicin, pH 7.6). Oocytes were injected with 50–100 ng of the desired nAChR subunits cRNA mix at ratios of 8α:1β or 1α:8β to express nAChRs with subunit stoichiometries of 3α:2β (low agonist sensitivity) or 2α:3β (high agonist sensitivity), respectively.
(§3) Oocytes were continuously perfused with recording buffer (100 mM NaCl, 2 mM KCl, 1 mM CaCl2, 0.8 mM MgCl2, 1 mM EGTA, 10 mM Hepes, pH 7.5) except during periods of drug applications.

[2] = target: (α4C259F)3(β2)2 nAChR (Homo sapiens, UniProt P43681, C259F); details: 10 µM ACh + 1 µM PAM vs 10 µM ACh alone
Experimental: as §1, §2, §3

[3] = target: (α4C259V)3(β2)2 nAChR (Homo sapiens, UniProt P43681, C259V); details: 10 µM ACh + 1 µM PAM vs 10 µM ACh alone
Experimental: as §1, §2, §3

[4] = target: (α4G613L)3(β2)2 nAChR (Homo sapiens, UniProt P43681, G613L)
Experimental: as §1, §2, §3

[5] = target: T2, (α4H332Y)3(β2)2 nAChR (Homo sapiens, UniProt P17787+P43681, H332Y)
T2 construct: expressed in transfected cells; host or cells: Xenopus laevis oocytes injected with cRNA
Experimental: as §1, §2, §3

[6] = target: T3, (α4I607T)3(β2)2 nAChR (Homo sapiens, UniProt P17787+P43681, I607T)
T3 construct: expressed in transfected cells; host or cells: Xenopus laevis oocytes injected with cRNA
Experimental: as §1, §2, §3

[7] = target: (α4L256F)3(β2)2 nAChR (Homo sapiens, UniProt P43681, L256F)
Experimental: as §1, §2, §3

[8] = target: T4, (α4L291V)3(β2)2 nAChR (Homo sapiens, UniProt P17787+P43681, L291V)
T4 construct: expressed in transfected cells; host or cells: Xenopus laevis oocytes injected with cRNA
Experimental: as §1, §2, §3

[9] = target: T5, (α4L310F)3(β2)2 nAChR (Homo sapiens, UniProt P17787+P43681, L310F)
T5 construct: expressed in transfected cells; host or cells: Xenopus laevis oocytes injected with cRNA
Experimental: as §1, §2, §3

[10] = target: T6, (α4M605I)3(β2)2 nAChR (Homo sapiens, UniProt P17787+P43681, M605I)
T6 construct: expressed in transfected cells; host or cells: Xenopus laevis oocytes injected with cRNA
Experimental: as §1, §2, §3

[11] = target: (α4S258M)3(β2)2 nAChR (Homo sapiens, UniProt P43681, S258M)
Experimental: as §1, §2, §3

[12] = target: T7, (α4S284G)3(β2)2 nAChR (Homo sapiens, UniProt P17787+P43681, S284G)
T7 construct: expressed in transfected cells; host or cells: Xenopus laevis oocytes injected with cRNA
Experimental: as §1, §2, §3

[13] = target: T8, (α4V609A)3(β2)2 nAChR (Homo sapiens, UniProt P17787+P43681, V609A)
T8 construct: expressed in transfected cells; host or cells: Xenopus laevis oocytes injected with cRNA
Experimental: as §1, §2, §3

[14] = 10 µM ACh + 1 µM PAM vs 10 µM ACh alone
[15] = ACh concentration-response curve, normalized to 1 mM ACh alone
[16] = read-out: LY2087101 potentiation EC50
[17] = normalized to peak current by 10 µM ACh alone, curve fit

T6 sequence (P43681 29-627 M605I limits assumed): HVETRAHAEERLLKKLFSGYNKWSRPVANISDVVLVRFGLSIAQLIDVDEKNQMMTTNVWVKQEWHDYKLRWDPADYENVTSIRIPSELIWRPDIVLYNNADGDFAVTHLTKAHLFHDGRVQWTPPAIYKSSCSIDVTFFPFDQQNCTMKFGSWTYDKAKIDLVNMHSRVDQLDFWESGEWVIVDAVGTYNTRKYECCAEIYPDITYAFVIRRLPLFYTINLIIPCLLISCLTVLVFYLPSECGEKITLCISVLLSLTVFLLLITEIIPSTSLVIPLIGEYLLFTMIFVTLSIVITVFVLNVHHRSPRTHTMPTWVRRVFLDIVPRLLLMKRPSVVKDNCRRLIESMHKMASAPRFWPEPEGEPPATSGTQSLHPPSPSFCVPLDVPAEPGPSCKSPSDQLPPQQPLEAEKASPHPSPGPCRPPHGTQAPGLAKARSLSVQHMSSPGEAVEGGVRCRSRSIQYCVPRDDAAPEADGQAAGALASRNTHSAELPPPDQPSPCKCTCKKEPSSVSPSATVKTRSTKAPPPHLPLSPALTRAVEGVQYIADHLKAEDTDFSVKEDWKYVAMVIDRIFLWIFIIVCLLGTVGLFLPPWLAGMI
T6 sequence (P17787 26-502): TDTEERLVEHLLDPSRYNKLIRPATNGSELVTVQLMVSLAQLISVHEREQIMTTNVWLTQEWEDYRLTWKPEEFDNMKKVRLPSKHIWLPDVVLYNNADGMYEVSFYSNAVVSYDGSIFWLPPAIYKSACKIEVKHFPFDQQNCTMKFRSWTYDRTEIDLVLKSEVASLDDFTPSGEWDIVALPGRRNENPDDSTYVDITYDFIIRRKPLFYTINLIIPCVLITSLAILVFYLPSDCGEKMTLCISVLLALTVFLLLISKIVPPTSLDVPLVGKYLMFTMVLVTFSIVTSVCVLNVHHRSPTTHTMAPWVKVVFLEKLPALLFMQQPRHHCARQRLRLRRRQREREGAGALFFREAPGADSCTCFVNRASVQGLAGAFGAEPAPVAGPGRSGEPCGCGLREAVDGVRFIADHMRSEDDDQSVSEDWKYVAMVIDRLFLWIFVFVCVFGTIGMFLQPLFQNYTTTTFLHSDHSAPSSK
T1 sequence (P43681 29-627 C254S limits assumed): as the sequence (P43681 29-627 M605I limits assumed) above, with C226S, I577M counted along it
T1 sequence (P17787 26-502): as the sequence (P17787 26-502) above
T2 sequence (P43681 29-627 H332Y limits assumed): as the sequence (P43681 29-627 M605I limits assumed) above, with H304Y, I577M counted along it
T2 sequence (P17787 26-502): as the sequence (P17787 26-502) above
T3 sequence (P43681 29-627 I607T limits assumed): as the sequence (P43681 29-627 M605I limits assumed) above, with I577M, I579T counted along it
T3 sequence (P17787 26-502): as the sequence (P17787 26-502) above
T4 sequence (P43681 29-627 L291V limits assumed): as the sequence (P43681 29-627 M605I limits assumed) above, with L263V, I577M counted along it
T4 sequence (P17787 26-502): as the sequence (P17787 26-502) above
Sequence of (α4S258M)3(β2)2 nAChR (P43681 29-627 S258M limits assumed): as the sequence (P43681 29-627 M605I limits assumed) above, with S230M, I577M counted along it
Sequence of (α4S258M)3(β2)2 nAChR (P17787 26-502 partner): as the sequence (P17787 26-502) above
T7 sequence (P43681 29-627 S284G limits assumed): as the sequence (P43681 29-627 M605I limits assumed) above, with S256G, I577M counted along it
T7 sequence (P17787 26-502, stated change not applied): as the sequence (P17787 26-502) above
T8 sequence (P43681 29-627 V609A limits assumed): as the sequence (P43681 29-627 M605I limits assumed) above, with I577M, V581A counted along it
T8 sequence (P17787 26-502): as the sequence (P17787 26-502) above
T5 sequence (P43681 29-627 L310F limits assumed): as the sequence (P43681 29-627 M605I limits assumed) above, with L282F, I577M counted along it
T5 sequence (P17787 26-502): as the sequence (P17787 26-502) above
Sequence of (α4L256F)3(β2)2 nAChR (P43681 29-627 L256F limits assumed): as the sequence (P43681 29-627 M605I limits assumed) above, with L228F, I577M counted along it
Sequence of (α4L256F)3(β2)2 nAChR (P17787 26-502 partner): as the sequence (P17787 26-502) above
Sequence of (α4G613L)3(β2)2 nAChR (P43681 29-627 G613L limits assumed): as the sequence (P43681 29-627 M605I limits assumed) above, with I577M, G585L counted along it
Sequence of (α4G613L)3(β2)2 nAChR (P17787 26-502 partner): as the sequence (P17787 26-502) above
Sequence of (α4C259V)3(β2)2 nAChR (P43681 29-627 C259V limits assumed): as the sequence (P43681 29-627 M605I limits assumed) above, with C231V, I577M counted along it
Sequence of (α4C259V)3(β2)2 nAChR (P17787 26-502 partner): as the sequence (P17787 26-502) above
Sequence of (α4C259F)3(β2)2 nAChR (P43681 29-627 C259F limits assumed): as the sequence (P43681 29-627 M605I limits assumed) above, with C231F, I577M counted along it
Sequence of (α4C259F)3(β2)2 nAChR (P17787 26-502 partner): as the sequence (P17787 26-502) above

Cc1nc(Nc2ccc(F)cc2)sc1C(=O)c1ccsc1 [LY2087101, [2-[(4-Fluorophenyl)amino]-4-methyl-5-thiazolyl]-3-thienylmethanone]
R, potentiation ratio (PR) [1, 14]: 8.4 ± 1.5 | ACh Imax in the presence of 1 µM LY2087101 [1, 15]: 185 ± 04% | EC50 [1, 16]: 1700 ± 200 nM | R, potentiation ratio (PR) [2]: 3.2 ± 0.4 | R, potentiation ratio (PR) [3]: 5.2 ± 0.6 | R, potentiation ratio (PR) [4, 14]: 1.09 ± 0.1 | ACh Imax in the presence of 1 µM LY2087101 [4, 15]: 112 ± 9% | R, potentiation ratio (PR) [5, 14]: 4.2 ± 0.5 | LY2087101 potentiation Imax% [5, 17]: 573 ± 20% | EC50 [5, 16]: 1300 ± 100 nM | R, potentiation ratio (PR) [6, 14]: 5.8 ± 0.7 | LY2087101 potentiation Imax% [6, 17]: 958 ± 32% | EC50 [6, 16]: 800 ± 100 nM | R, potentiation ratio (PR) [7, 14]: 1.0 ± 0.1 | ACh Imax in the presence of 1 µM LY2087101 [7, 15]: 104 ± 09% | R, potentiation ratio (PR) [8, 14]: 3.7 ± 0.6 | LY2087101 potentiation Imax% [8, 17]: 719 ± 20% | EC50 [8, 16]: 1600 ± 100 nM | R, potentiation ratio (PR) [9, 14]: 9.8 ± 1.0 | EC50 [9, 16]: 3100 ± 100 nM | R, potentiation ratio (PR) [10, 14]: 4.5 ± 0.2 | LY2087101 potentiation Imax% [10, 17]: 756 ± 27% | EC50 [10, 16]: 800 ± 100 nM | R, potentiation ratio (PR) [11, 14]: 1.5 ± 0.2 | ACh Imax in the presence of 1 µM LY2087101 [11, 15]: 232 ± 10% | LY2087101 potentiation Imax% ([11]; normalized to 10 µM ACh alone, not from curve fitting, maximum seen at any concentration up to 10 µM LY2087101): 254 ± 12% | R, potentiation ratio (PR) [12, 14]: 3.8 ± 0.4 | LY2087101 potentiation Imax% [12, 17]: 537 ± 20% | EC50 [12, 16]: 700 ± 100 nM | R, potentiation ratio (PR) [13, 14]: 5.7 ± 1.1 | EC50 [13, 16]: 1000 ± 300 nM
